{"source": "patent US4985445A", "about": "“Cancer cell metastasis inhibitors and novel compounds” (Meiji Seika Kaisha, Ltd., priority 1988, dated 1991)", "key": {"[1]": {"assay": "Acute toxicity (LD50) by mice", "conditions": "mouse, in vivo, ip"}, "[2]": {"tested_on": "B16 subline of high pulmonary metastatic potential", "conditions": "Table 2, B16 subline, 3 days", "method": "(§1) The B16 subline of high pulmonary metastatic potential and murine tumor cell line L 929 were cultured in DME medium supplemented with 10% bovine fetal serum at 37° C. in the presence of 5% CO2. Then, cells were detached from the Petri dish with trypsin-EDTA solution. The B16 subline and L 929 were suspended in the medium described above in 1×10^4 cells/ml and 1×10^3 cells/ml, respectively. Each suspension, 150 μl, was added to 50 μl of N-(3-phenylpropyl)-1-deoxynojirimycin solution or Adriamycin (control) solution. Incubation was performed for 3 days for the B16 subline and for 4 days for L 929 strain.\nas §1, with “of N-(4-phenoxy-trans-2-butenyl)-1-deoxynojirimycin” for “of N-(3-phenylpropyl)-1-deoxynojirimycin”, “days in” for “days for”, “L 929.” for “L 929 strain.”\nas §1, with “of D-glucaro-δ-lactam calcium salt” for “of N-(3-phenylpropyl)-1-deoxynojirimycin”, “(control) solutions.” for “(control) solution.”, “days in” for “days for”, “L 929.” for “L 929 strain.”\nThe B16 subline of high pulmonary metastatic potential and murine tumor cell line L 929 were cultured in DME medium supplemented with 10% bovine fetal serum at 37° C. in the presence of 5% CO2. Then, cells were detached from the Petri dish with trypsin-EDTA solution. The B16 subline and L 929 were suspended in the medium described above in 1×10^4 cells/ml and 1×10^3 cells/ml, respectively. Each suspension, 150 μl, was added to 50 μl of 2,6-di-O-(1-(p-chlorobenzoyl)-5-methoxy-2-methylindole-3-acetyl)-D-gluco-δ-lactam solution or and Adriamycin (control) solutions. Incubation was performed for 3 days in the B16 subline and for 4 days in L 929.\nThe B16 subline of high pulmanary metastatic potential and murine tumor cell line L 929 were cultured in DME medium supplemented with 10% bovine fetal serum at 37° C. in the presence of 5% CO2. Then, cells were detached from the Petri dish with trypsin-EDTA solution. The B16 subline and L 929 were suspended in the medium described above in 1×10^4 cells/ml and 1×10^3 cells/ml, respectively. Each suspension, 150 μl, was added to 50 μl of 6-O-triphenylmethyl-D-gluco-δ-lactam solution or Adriamycin (control) solutions. Incubation was performed for 3 days in the B16 sibline and for 4 days in L 929.\nThe B16 subline of high pulmonary metastatic potential was inoculated into DME medium supplemented with 10% bovine fetal serum and 30 μg/ml of 1-deoxynojirimycin was added thereto followed by incubation at 37° C. for 3 days in the presence of 5% CO2. […] Next, the cells were detached from the Petri dish with trypsin-EDTA solution. The cells were suspended in PBS- in 1×10^6 cells/ml as viable cells. This suspension, 0.1 ml, was intravenously injected in the tail vein of the mouse BDF1 (8 week age, male; 1 group, 3 mice). After feeding for 14 days, the mouse was sacrificed to excise the lungs. The number of colonies of the B16 subline on the surface of and in the lungs was counted."}}, "note": "Like-named read-outs stand apart in the source and are kept apart here.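 For Growth in this document: + means growth and ± means marked inhibition and - means cell death.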"}
{"smiles": "OC[C@@H]1[C@@H](O)[C@H](O)[C@@H](O)CN1CCCc1ccccc1", "note": "[N-(3-Phenylpropyl)-1-deoxynojirimycin, N-(3-phenylpropyl)-1-deoxynojirimycin]", "values": [{"measurement": "LD50", "setting": "[1]", "result": "> 500", "unit": "mg/kg"}, {"measurement": "Growth", "setting": "[2]; 30 μg/ml", "result": "+"}, {"measurement": "Growth", "setting": "[2]; 100 μg/ml", "result": "+"}, {"measurement": "Growth", "setting": "[2]; 300 μg/ml", "result": "±"}]}
